Data as given in US20250041316A1, “METHODS AND COMPOSITIONS FOR TREATING LIVER DISEASE” (Temple University-Of The Commonwealth System of Higher …, priority 2023, published 2025).

Columns and labels:
mice fed with WD = conditions: WD 8 weeks then DHT 3 weeks under WD vs WD alone 11 weeks; FIG. 5
[1] = test system: prolow-density lipoprotein-related protein 1; conditions: DHT with WD vs WD alone
Experimental: (§1) FIG. 1A depicts a representative illustration of the experimental system used to study the effects of DHT on metabolism. Mice were fed with a Western diet (WD). At 45 days of age, one group of mice were administered DHT via pellet at Week 0 and at Week 4-5 (WD+DHT). One group of WD fed mice were not administered with DHT (WD). Mice were euthanized at Week 8. Ex vivo lipolysis, histology and molecular studies were performed.

regucalcin = conditions: WD+DHT vs WD mice
Experimental: as §1

[2] = test system: female mice fed with a Western diet
Experimental: as §1

C[C@]12CCC(=O)C[C@@H]1CC[C@@H]1[C@@H]2CC[C@]2(C)[C@@H](O)CC[C@@H]12 [DHT, dihydrotestosterone]
liver triglyceride (mice fed with WD): lower triglyceride | prolow-density lipoprotein-related protein 1 in liver [1]: significantly altered | regucalcin in liver (regucalcin): significantly altered | brown adipose cell size (histology) ([2]; DHT with WD mice): enlarged | triglyceride (TG) in circulation ([2]; WD+DHT vs WD mice): Significantly elevated levels | fat in liver (liver images) ([2]; WD+DHT vs WD mice, FIG. 1C): lower levels of fat | liver triglyceride level ([2]; WD+DHT vs WD mice, FIG. 2A): lower levels | liver cholesterol level ([2]; WD+DHT vs WD mice, FIG. 2B): lower levels | liver lipid deposition (oil red and H&E staining, histology) ([2]; WD+DHT vs WD mice, FIG. 4): decreased lipid deposition | glucose tolerance ([2]; at 3 weeks, DHT with WD vs WD alone, adult female mice): more impaired glucose intolerance | pyruvate tolerance ([2]; at 6-7 weeks, DHT with WD vs WD alone, adult female mice): more impaired pyruvate tolerance
